Active and inactive are the calls of the source. The rule behind the calls is not given here.

This passage reports inhibition and IC50 results from ChEMBL document CHEMBL4261644, “Novel Symmetrical Benzazolyl Derivatives Endowed with Potent Anti-Heparanase Activity” (J Med Chem, 2018).

Assay [1] deals with T1, Heparanase (Homo sapiens) (UniProt Q9Y251).
T1 sequence (whole entry): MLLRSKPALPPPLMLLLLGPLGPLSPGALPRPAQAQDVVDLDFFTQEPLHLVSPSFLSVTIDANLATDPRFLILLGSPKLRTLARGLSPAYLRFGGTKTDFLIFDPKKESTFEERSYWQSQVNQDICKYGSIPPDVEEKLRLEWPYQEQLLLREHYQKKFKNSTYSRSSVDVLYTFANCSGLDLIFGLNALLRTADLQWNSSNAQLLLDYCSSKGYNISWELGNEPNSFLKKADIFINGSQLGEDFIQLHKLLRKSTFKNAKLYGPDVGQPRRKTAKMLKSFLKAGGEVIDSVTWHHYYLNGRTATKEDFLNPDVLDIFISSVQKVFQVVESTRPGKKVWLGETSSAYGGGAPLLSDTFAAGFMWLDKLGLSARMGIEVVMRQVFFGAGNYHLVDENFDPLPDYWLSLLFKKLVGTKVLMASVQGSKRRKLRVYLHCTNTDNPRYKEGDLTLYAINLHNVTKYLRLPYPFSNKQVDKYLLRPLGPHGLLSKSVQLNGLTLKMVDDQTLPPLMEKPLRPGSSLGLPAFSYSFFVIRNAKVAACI
Briefly: Inhibition of HPSE in human HT1080 cells assessed as reduction in FGF2 mRNA expression after 24 hrs by qPCR analysis relative to control. Format: cell-based. For orientation: Real-time PCR tracks product formation cycle by cycle.

In assay [2] the target is T1, Heparanase (Homo sapiens). Briefly: Inhibition of HPSE in human HT1080 cells assessed as reduction in MMP9 mRNA expression after 24 hrs by qPCR analysis relative to control. Format: cell-based.
In assay [3] the target is T1, Heparanase (Homo sapiens). In words: Inhibition of HPSE in human HT1080 cells assessed as reduction in HPSE mRNA expression after 24 hrs by qPCR analysis relative to control. It is filed as cell-based.
The test system of assay [4] is U-87 MG. Briefly: Antiproliferative activity against human U87MG cells after 72 hrs by SRB assay. It is filed as cell-based, U-87MG ATCC. Conditions: Homo sapiens, U-87 MG, 72 h; read-out: IC50. (In general: The SRB assay estimates cell density from bound dye.)
The subject of assay [5] is HT-1080. Briefly: Anti-invasive activity in human HT1080 cells assessed as reduction in invasive potential at 1 uM after 24 hrs by matrigel invasion assay relative to control. Format: functional. The conditions noted are these: HT-1080, 24 h.
In assay [6] the target is T1, Heparanase (Homo sapiens). In words: Inhibition of HPSE in human HT1080 cells assessed as reduction in FGF1 mRNA expression after 24 hrs by qPCR analysis relative to control. Format: cell-based.
In assay [7] the test system is U2OS. In words: Anti-invasive activity in human U2OS cells assessed as reduction in invasive potential at 1 uM after 24 hrs by matrigel invasion assay relative to control. It is filed as functional.
The target in assay [8] is T1, Heparanase (Homo sapiens). Briefly: Inhibition of HPSE in human HT1080 cells assessed as reduction in VEGF mRNA expression after 24 hrs by qPCR analysis relative to control. It is filed as cell-based.
Assay [9] relates to HT-1080. In words: Antiproliferative activity against human HT1080 cells after 72 hrs by SRB assay. It is filed as cell-based. The conditions noted are these: Homo sapiens, HT-1080, 72 h; read-out: IC50.
Assay [10] deals with U-87 MG. In words: Anti-invasive activity in human U87MG cells assessed as reduction in invasive potential at 1 uM after 24 hrs by matrigel invasion assay relative to control. It is filed as functional, U-87MG ATCC.
In assay [11] the test system is U2OS. In words: Antiproliferative activity against human U2OS cells after 72 hrs by SRB assay. It is filed as cell-based. The conditions noted are these: Homo sapiens, U2OS, 72 h; read-out: IC50.

Take `COc1ccc(C(=O)Nc2ccc(CNc3ccc(-c4nc5cc(CC(=O)O)ccc5[nH]4)cc3F)cc2)cc1Br`: the inhibition result in assay [1], in assay [2], in [3], in assay [6] and in assay [8] was “Active” in each case. Further, the IC50 – broadly, the concentration needed to halve the response being measured – in the assay on U-87 MG [4] came out at 2800 nM; in the assay on HT-1080 [9] it was 8700 nM; with U2OS [11], 1700 nM. Further, the inhibition at 1 µM in the assay on HT-1080 [5], in the assay on U2OS [7] and in the assay on U-87 MG [10] was 50 to 90% in each case.
